Experimental data from the supplement of paper PMC10307832.

Columns and labels:
Test in all cases: relative viability (nuclei count vs DMSO), 5 days (fraction); higher = more cells survive
Alisertib + Vorinostat = compound: COc1cc(Nc2ncc3c(n2)-c2ccc(Cl)cc2C(c2c(F)cccc2OC)=NC3)ccc1C(=O)O [Alisertib] + O=C(CCCCCCC(=O)Nc1ccccc1)NO [Vorinostat] (partner 1 µM)
Outline: (§1)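 Each reported value is a median over duplicate plates. It expresses relative viability: treated-well nuclei count divided by vehicle-well nuclei count. Lung cancer cell lines in 1536-well plates were dosed by pin tool a day after seeding, alone with one drug or with a fixed anchor-drug dose plus five library-drug doses (not always all listed) in √10 steps, and nuclei were counted after 5 days.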

Alisertib + Dasatinib = compound: COc1cc(Nc2ncc3c(n2)-c2ccc(Cl)cc2C(c2c(F)cccc2OC)=NC3)ccc1C(=O)O [Alisertib] + Cc1nc(Nc2ncc(C(=O)Nc3c(C)cccc3Cl)s2)cc(N2CCN(CCO)CC2)n1 [Dasatinib] (partner 0.075 µM)
Outline: as §1

Alisertib + Pictilisib = compound: COc1cc(Nc2ncc3c(n2)-c2ccc(Cl)cc2C(c2c(F)cccc2OC)=NC3)ccc1C(=O)O [Alisertib] + CS(=O)(=O)N1CCN(Cc2cc3nc(-c4cccc5[nH]ncc45)nc(N4CCOCC4)c3s2)CC1 [Pictilisib] (partner 1 µM)
Outline: as §1

Alisertib + Crizotinib = compound: COc1cc(Nc2ncc3c(n2)-c2ccc(Cl)cc2C(c2c(F)cccc2OC)=NC3)ccc1C(=O)O [Alisertib] + C[C@@H](Oc1cc(-c2cnn(C3CCNCC3)c2)cnc1N)c1c(Cl)ccc(F)c1Cl [Crizotinib] (partner 1 µM)
Outline: as §1

Cell Line	relative viability (Alisertib + Vorinostat; first compound 0.005 µM)	relative viability (Alisertib + Vorinostat; first compound 0.01581 µM)	relative viability (Alisertib + Vorinostat; first compound 0.05 µM)	relative viability (Alisertib + Vorinostat; first compound 0.1581 µM)	relative viability (Alisertib + Vorinostat; first compound 0.5 µM)	relative viability (Alisertib + Dasatinib; first compound 0.005 µM)	relative viability (Alisertib + Dasatinib; first compound 0.01581 µM)	relative viability (Alisertib + Dasatinib; first compound 0.05 µM)	relative viability (Alisertib + Dasatinib; first compound 0.1581 µM)	relative viability (Alisertib + Dasatinib; first compound 0.5 µM)	relative viability (Alisertib + Pictilisib; first compound 0.005 µM)	relative viability (Alisertib + Pictilisib; first compound 0.01581 µM)	relative viability (Alisertib + Pictilisib; first compound 0.05 µM)	relative viability (Alisertib + Pictilisib; first compound 0.1581 µM)	relative viability (Alisertib + Pictilisib; first compound 0.5 µM)	relative viability (Alisertib + Crizotinib; first compound 0.005 µM)	relative viability (Alisertib + Crizotinib; first compound 0.01581 µM)	relative viability (Alisertib + Crizotinib; first compound 0.05 µM)	relative viability (Alisertib + Crizotinib; first compound 0.1581 µM)	relative viability (Alisertib + Crizotinib; first compound 0.5 µM)
NCI-H441	0.692	0.723	0.373	0.217	0.185	0.621	0.332	0.186	0.165	0.176	0.402	0.229	0.118	0.139	0.123	0.626	0.555	0.131	0.178	0.136
NCI-H460	0.683	0.527	0.0348	0.039	0.0281	0.455	0.485	0.198	0.036	0.0218	0.364	0.428	0.327	0.0613	0.0689	0.847	0.731	0.0614	0.0166	0.0164
NCI-H520	0.588	0.455	0.325	0.276	0.208	0.218	0.199	0.148	0.177	0.159	0.23	0.203	0.209	0.179	0.187	0.589	0.38	0.286	0.296	0.243
NCI-H596	0.514	0.655	0.616	0.488	0.311	0.593	0.688	0.626	0.53	0.342		0.412	0.433	0.214	0.242		0.882	0.882	0.719	0.504
